Values of other authors in patent US6313179A, “Treatment of hyperproliferative skin disorders with C18 to C20 aliphatic alcohols” (Avanir Pharmaceuticals, priority 1998, dated 2001).

Settings: oral ingestion; U.S. Pat. No. 3,031,376; cited from earlier work

Q: With `CCCCCCCCCCCCCCCCCCCCCCCCCCO` [n-hexacosanol] as the compound, how does the “physical performance of athletes” value read?
A: improved physical performance of athletes

Q: Which “physical performance of athletes” value does the source give for `CCCCCCCCCCCCCCCCCCCCCCCCCCCCO` [n-octacosanol, reference compound] here?
A: improved physical performance of athletes

Q: Which “physical performance of athletes” value does the source give for `CCCCCCCCCCCCCCCCCCCCCCCCO` [n-tetracosanol] here?
A: improved physical performance of athletes

Q: With `CCCCCCCCCCCCCCCCCCCCCCCCCCCCCCO` [triacontanol, reference compound] as the compound, how does the “physical performance of athletes” value read?
A: improved physical performance of athletes
